Source: patent US20090170812A1, “Transcription factor modulating compounds and methods of use thereof” (priority 2006, published 2009)

Legend:
[1] = biological target: LcrF (VirF) (Yersinia pestis, UniProt P28808); assay: biochemical; assay type: binding, Y. pseudotuberculosis
[2] = biological target: T1, ExsA (Pseudomonas aeruginosa, UniProt P26993); assay: In vitro activity of Mar inhibitors against ExsA: cell-free DNA binding assay; details: purified ExsA from P. aeruginosa, inhibition of DNA binding in vitro
T1 construct: made in house
T1 sequence (P26993 1-278): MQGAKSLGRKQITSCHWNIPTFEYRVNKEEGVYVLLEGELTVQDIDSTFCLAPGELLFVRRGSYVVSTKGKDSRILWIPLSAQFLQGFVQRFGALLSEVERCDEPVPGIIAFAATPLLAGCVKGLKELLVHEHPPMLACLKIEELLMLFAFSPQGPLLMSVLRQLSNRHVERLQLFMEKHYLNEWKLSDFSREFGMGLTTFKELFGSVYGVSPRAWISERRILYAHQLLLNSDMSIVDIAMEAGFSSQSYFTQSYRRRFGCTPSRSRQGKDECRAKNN

[3] = system: Yersinia pseudotuberculosis
[4] = system: P. aeruginosa; assay: Whole cell assay: cytotoxicity of P. aeruginosa toward J774 cells (CytoTox 96, LDH release); details: percent cytotoxicity of treated P. aeruginosa toward J774 cells

Chain of LcrF (VirF) (P28808 whole entry, looked up): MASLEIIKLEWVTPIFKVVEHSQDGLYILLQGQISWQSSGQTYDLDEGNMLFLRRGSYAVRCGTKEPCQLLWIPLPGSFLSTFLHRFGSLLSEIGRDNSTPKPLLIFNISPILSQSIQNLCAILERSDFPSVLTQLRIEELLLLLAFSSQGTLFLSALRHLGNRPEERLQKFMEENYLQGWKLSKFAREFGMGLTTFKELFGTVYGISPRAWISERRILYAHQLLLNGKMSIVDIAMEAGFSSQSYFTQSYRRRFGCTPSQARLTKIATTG

SMILES	EC50 [1]	EC50 [2]	Cytotoxicity at 50 μg/mL Yersinia [3]	Cytotoxicity at 50 μg/mL Pseudomonas [4]
CCc1cc(-c2nc3ccc([N+](=O)[O-])cc3n2O)ccc1NC(=O)c1ccc(C(C)=O)cc1 [AA]	10.1 to 25 µM	10.1 to 25 µM	* (key: *: percent cytotoxicity above 75% at 50 μg/mL; **: cytotoxicities below 75% at 50 μg/mL)	* (percent cytotoxicities above 75% at 50 mg/mL)
O=C(Nc1ccc(-c2nc3ccc([N+](=O)[O-])cc3n2O)nc1)c1ccc(F)cc1 [AF]	> 25.1 µM	> 25.1 µM	* (key: *: percent cytotoxicity above 75% at 50 μg/mL; **: cytotoxicities below 75% at 50 μg/mL)	–
O=C(Nc1ccc(-c2nc3ccc([N+](=O)[O-])cc3n2OCP(=O)(O)O)cc1)c1ccc(F)cc1 [AK]	–	–	* (key: *: percent cytotoxicity above 75% at 50 μg/mL; **: cytotoxicities below 75% at 50 μg/mL)	–
CCOP(=O)(COn1c(-c2ccc(NC(=O)c3ccc(F)cc3)cc2)nc2ccc([N+](=O)[O-])cc21)OCC [AU]	–	–	* (key: *: percent cytotoxicity above 75% at 50 μg/mL; **: cytotoxicities below 75% at 50 μg/mL)	–
O=C(Nc1ccc(-c2nc3ccncc3n2O)cc1)c1ccc(F)cc1 [AX]	–	–	* (key: *: percent cytotoxicity above 75% at 50 μg/mL; **: cytotoxicities below 75% at 50 μg/mL)	–
O=C(/C=C/c1ccc(F)cc1)Nc1ccc(-c2nc3ccncc3n2O)cc1 [AY]	–	–	* (key: *: percent cytotoxicity above 75% at 50 μg/mL; **: cytotoxicities below 75% at 50 μg/mL)	–
Cc1cc(-c2nc3ccc([N+](=O)[O-])cc3n2O)ccc1NC(=O)/C=C/c1ccc(F)cc1 [BB]	10.1 to 25 µM	> 25.1 µM	* (key: *: percent cytotoxicity above 75% at 50 μg/mL; **: cytotoxicities below 75% at 50 μg/mL)	–
O=C(Nc1ccc(-c2nc3ccc([N+](=O)[O-])cc3n2O)cc1)c1ccc2c(c1)CCCC2=O [BD]	> 25.1 µM	> 25.1 µM	* (key: *: percent cytotoxicity above 75% at 50 μg/mL; **: cytotoxicities below 75% at 50 μg/mL)	–
CC(=O)c1ccc(C(=O)Nc2ccc(-c3nc4ccc([N+](=O)[O-])cc4n3O)cc2C)cc1 [BF]	–	< 10 µM	* (key: *: percent cytotoxicity above 75% at 50 μg/mL; **: cytotoxicities below 75% at 50 μg/mL)	–
CN(C)C(=O)c1ccc(C(=O)Nc2ccc(-c3nc4ccc([N+](=O)[O-])cc4n3O)cc2)cc1 [BP]	–	–	* (key: *: percent cytotoxicity above 75% at 50 μg/mL; **: cytotoxicities below 75% at 50 μg/mL)	* (percent cytotoxicities above 75% at 50 mg/mL)
CN(C)CCN(C)c1cc2nc(-c3ccc(NC(=O)/C=C/c4ccc(F)cc4)cc3)n(O)c2cc1[N+](=O)[O-] [CE]	< 10 µM	< 10 µM	–	** (cytotoxicities below 75% at 50 mg/mL)
CN1CCN(CCOc2cc3nc(-c4ccc(NC(=O)/C=C/c5ccc(F)cc5)cc4)n(O)c3cc2[N+](=O)[O-])CC1 [CF]	< 10 µM	< 10 µM	–	* (percent cytotoxicities above 75% at 50 mg/mL)
CN(C)CCOc1cc2nc(-c3ccc(NC(=O)/C=C/c4ccc(F)cc4)cc3)n(O)c2cc1[N+](=O)[O-] [CG]	–	> 25.1 µM	–	* (percent cytotoxicities above 75% at 50 mg/mL)
O=C(/C=C/c1ccc(F)cc1)Nc1ccc(-c2nc3ccc(-n4ccnc4)cc3n2O)cc1 [CH]	> 25.1 µM	10.1 to 25 µM	–	* (percent cytotoxicities above 75% at 50 mg/mL)
CC(=O)c1ccc(/C=C/C(=O)Nc2ccc(-c3nc4cc(OCCN5CCN(C)CC5)c([N+](=O)[O-])cc4n3O)cc2)cc1 [CI]	< 10 µM	< 10 µM	–	** (cytotoxicities below 75% at 50 mg/mL)
CC(=O)c1ccc(/C=C/C(=O)Nc2ccc(-c3nc4cc(OCCN5CCOCC5)c([N+](=O)[O-])cc4n3O)cc2)cc1 [CJ]	–	–	–	** (cytotoxicities below 75% at 50 mg/mL)
CC(=O)c1ccc(/C=C/C(=O)Nc2ccc(-c3nc4ccc(C#N)cc4n3O)cc2)cc1 [CK]	10.1 to 25 µM	10.1 to 25 µM	–	** (cytotoxicities below 75% at 50 mg/mL)

SMILES	EC50 [1]	EC50 [2]	Cytotoxicity at 50 μg/mL Yersinia [3]	Cytotoxicity at 50 μg/mL Pseudomonas [4]
N#Cc1ccc2nc(-c3ccc(NC(=O)c4ccc(-n5ccnc5)cc4)cc3)n(O)c2c1 [CO]	10.1 to 25 µM	> 25.1 µM	–	** (cytotoxicities below 75% at 50 mg/mL)
NC(=O)c1ccc2nc(-c3ccc(NC(=O)c4ccc(F)cc4)cc3)n(O)c2c1 [Compound AD, 2-[4-(4-Fluoro-benzoylamino)-phenyl]-3-hydroxy-3H-benzoimidazole-5-carboxylic Acid Amide]	–	–	* (key: *: percent cytotoxicity above 75% at 50 μg/mL; **: cytotoxicities below 75% at 50 μg/mL)	–
O=C(Nc1ccc(-c2nc3ccc([N+](=O)[O-])cc3n2O)c(OCP(=O)(O)O)c1)c1ccc(F)cc1 [Compound AR, [5-(4-Fluoro-benzoylamino)-2-(1-hydroxy-6-nitro-1H-benzoimidazol-2-yl)-phenoxymethyl]-phosphonic Acid]	–	–	* (key: *: percent cytotoxicity above 75% at 50 μg/mL; **: cytotoxicities below 75% at 50 μg/mL)	–
O=C(/C=C/c1ccc(-n2ccnc2)cc1)Nc1ccc(-c2nc3ccc([N+](=O)[O-])cc3n2O)cc1 [Compound BK, (E)-N-[4-(1-Hydroxy-6-nitro-1H-benzoimidazol-2-yl)-phenyl]-3-(4-imidazol-1-yl-phenyl)-acrylamide]	–	< 10 µM	** (key: *: percent cytotoxicity above 75% at 50 μg/mL; **: cytotoxicities below 75% at 50 μg/mL)	** (cytotoxicities below 75% at 50 mg/mL)
O=C(/C=C/c1ccc(F)cc1)Nc1ccc(-c2nc3cc(F)c([N+](=O)[O-])cc3n2O)cc1 [Compound BO, N-[4-(5-Fluoro-1-hydroxy-6-nitro-1H-benzoimidazol-2-yl)-phenyl]-3-(4-fluoro-cinnamyl)-amide]	> 25.1 µM	> 25.1 µM	–	** (cytotoxicities below 75% at 50 mg/mL)
CC(=O)c1ccc(/C=C/C(=O)Nc2ccc(-c3nc4ccc([N+](=O)[O-])cc4n3O)cc2)cc1 [Compound BQ, (E)-3-(4-Acetyl-phenyl)-N-[4-(1-hydroxy-6-nitro-1H-benzoimidazol-2-yl)-phenyl]-acrylamide]	10.1 to 25 µM	< 10 µM	–	** (cytotoxicities below 75% at 50 mg/mL)
O=C(/C=C/c1ccc(F)cc1)Nc1ccc(-c2nc3ccc(-n4cccn4)cc3n2O)cc1 [Compound CL, (E)-3-(4-Fluoro-phenyl)-N-[4-(1-hydroxy-6-pyrazol-1-yl-1H-benzoimidazol-2-yl)-phenyl]-acrylamide]	> 25.1 µM	> 25.1 µM	–	* (percent cytotoxicities above 75% at 50 mg/mL)
CC(=O)c1ccc(C(=O)Nc2ccc(-c3nc4ccc(-n5cccn5)cc4n3O)cc2)cc1 [Compound CM, 4-Acetyl-N-[4-(1-hydroxy-6-pyrazol-1-yl-1H-benzoimidazol-2-yl)-phenyl]-benzamide]	–	–	–	* (percent cytotoxicities above 75% at 50 mg/mL)
CC(=O)c1ccc(C(=O)Nc2ccc(-c3nc4ccc(-n5ccnc5)cc4n3O)cc2)cc1 [Compound CN, 4-Acetyl-N-[4-(1-hydroxy-6-imidazol-1-yl-1H-benzoimidazol-2-yl)-phenyl]-benzamide]	–	–	–	* (percent cytotoxicities above 75% at 50 mg/mL)
O=C(O)COn1c(-c2ccc(NC(=O)c3ccc(F)cc3)cc2)nc2ccc([N+](=O)[O-])cc21 [Compound V, {2-[4-(4-Fluoro-benzoylamino)-phenyl]-6-nitro-benzoimidazol-1-yloxy}-acetic Acid]	> 25.1 µM	–	* (key: *: percent cytotoxicity above 75% at 50 μg/mL; **: cytotoxicities below 75% at 50 μg/mL)	–
CC(C)c1ccc(/C=C/C(=O)Nc2ccc(-c3nc4ccc([N+](=O)[O-])cc4n3O)cc2)cc1 [H]	> 25.1 µM	> 25.1 µM	* (key: *: percent cytotoxicity above 75% at 50 μg/mL; **: cytotoxicities below 75% at 50 μg/mL)	–
C/C(=C\c1ccccc1)C(=O)Nc1ccc(-c2nc3ccc([N+](=O)[O-])cc3n2O)cc1 [I]	> 25.1 µM	–	* (key: *: percent cytotoxicity above 75% at 50 μg/mL; **: cytotoxicities below 75% at 50 μg/mL)	–
O=C(Nc1ccc2nc(-c3ccc([N+](=O)[O-])cc3)n(O)c2c1)c1ccc(F)cc1 [L]	–	–	* (key: *: percent cytotoxicity above 75% at 50 μg/mL; **: cytotoxicities below 75% at 50 μg/mL)	–
NC(=NO)c1ccc2nc(-c3ccc(NC(=O)c4ccc(F)cc4)cc3)n(O)c2c1 [M]	> 25.1 µM	> 25.1 µM	* (key: *: percent cytotoxicity above 75% at 50 μg/mL; **: cytotoxicities below 75% at 50 μg/mL)	–
O=C(C/C=C/c1ccccc1)Nc1ccc(-c2nc3ccc([N+](=O)[O-])cc3n2O)cc1 [N]	> 25.1 µM	–	* (key: *: percent cytotoxicity above 75% at 50 μg/mL; **: cytotoxicities below 75% at 50 μg/mL)	* (percent cytotoxicities above 75% at 50 mg/mL)
CC(=NO)c1ccc2nc(-c3ccc(NC(=O)c4ccc(N(C)C)cc4)cc3)n(O)c2c1 [U]	> 25.1 µM	> 25.1 µM	* (key: *: percent cytotoxicity above 75% at 50 μg/mL; **: cytotoxicities below 75% at 50 μg/mL)	–
CCc1cc(-c2nc3ccc([N+](=O)[O-])cc3n2O)ccc1NC(=O)c1ccc(F)cc1 [Z]	10.1 to 25 µM	> 25.1 µM	* (key: *: percent cytotoxicity above 75% at 50 μg/mL; **: cytotoxicities below 75% at 50 μg/mL)	–
